Reference: ChEMBL document CHEMBL4673334, “In Vivo Biological Evaluation of a Synthetic Royleanone Derivative as a Promising Fast-Acting Trypanocidal Agent by Inducing Mitochondrial-Dependent Necrosis” (J Nat Prod, 2020)
Active and inactive are the calls of the source. No cut-off for these calls is given here.

Tests used:
Trypanosoma cruzi [1] = assay: Antitrypanosomal activity against Trypanosoma cruzi MHOM/Pe/2011/Arequipa(DTU V) epimastigote form assessed as disruption of pyruvate level at IC25 concentration incubated for 72 hrs by NMR spectrometric analysis; assay type: functional, organism-based
[2] = Selectivity index, ratio of IC50 for cytotoxicity against African green monkey Vero cells to IC50 for antitrypanosomal activity against Trypanosoma cruzi MHOM/Pe/2011/Arequipa(DTU V) blood stream trypomastigote form; assay type: toxicity, cell-based; details: read-out: Ratio IC50
Trypanosoma cruzi [3] = assay: Antitrypanosomal activity against Trypanosoma cruzi MHOM/Pe/2011/Arequipa(DTU V) epimastigote form assessed as disruption of succinic acid level at IC25 concentration incubated for 72 hrs by NMR spectrometric analysis; assay type: functional, organism-based
[4] = Toxicity in BALB/c mouse infected with Trypanosomal Trypanosoma cruzi MHOM/Pe/2011/Arequipa(DTU V) assessed as reduction in survival at 20 mg/kg, po administered for 5 days starting at 100 days post infection and measured up to 145 days post infection; assay type: organism-based; details: in vivo, 120 h, time 5 day
[5] = Selectivity index, ratio of IC50 for cytotoxicity against African green monkey Vero cells to IC50 for antitrypanosomal activity against Trypanosoma cruzi IRHOD/CO/2008/SN3 (DTU I) blood stream trypomastigote form; assay type: toxicity, cell-based; details: read-out: Ratio IC50
Trypanosoma cruzi [6] = assay: Inhibition of nucleic acid level in Trypanosoma cruzi MHOM/Pe/2011/Arequipa(DTU V) epimastigote form at IC25 concentration after 72 hrs by Rho (FITC-A) staining based flow cytometric analysis; assay type: functional
[7] = Toxicity in BALB/c mouse infected with Trypanosomal Trypanosoma cruzi MHOM/Pe/2011/Arequipa(DTU V) assessed as effect on CK-MB level at 20 mg/kg, po administered for 5 days starting at 9 days post infection and measured after 2 days post treatment; assay type: organism-based; details: in vivo, 120 h, time 5 day
[8] = Toxicity in BALB/c mouse infected with Trypanosomal Trypanosoma cruzi MHOM/Pe/2011/Arequipa(DTU V) assessed as reduction in survival at 20 mg/kg, po administered for 5 days starting at 9 days post infection and measured up to 145 days post infection; assay type: organism-based; details: in vivo, 120 h, time 5 day
[9] = Toxicity in BALB/c mouse infected with Trypanosomal Trypanosoma cruzi MHOM/Pe/2011/Arequipa(DTU V) assessed as effect on uric acid level at 20 mg/kg, po administered for 5 days starting at 9 days post infection and measured after 2 days post treatment; assay type: organism-based; details: in vivo, 120 h, time 5 day
[10] = Selectivity index, ratio of IC50 for cytotoxicity against African green monkey Vero cells to IC50 for antitrypanosomal activity against Trypanosoma cruzi TINF/CH/1956/Tulahuen (DTU VI) epimastigote form; assay type: toxicity, cell-based; details: read-out: Ratio IC50
[11] = Toxicity in BALB/c mouse infected with Trypanosomal Trypanosoma cruzi MHOM/Pe/2011/Arequipa(DTU V) assessed as effect on total bilirubin level at 20 mg/kg, po administered for 5 days starting at 9 days post infection and measured after 2 days post treatment; assay type: organism-based; details: in vivo, 120 h, time 5 day
[12] = Selectivity index, ratio of IC50 for cytotoxicity against African green monkey Vero cells to IC50 for antitrypanosomal activity against Trypanosoma cruzi IRHOD/CO/2008/SN3 (DTU I) amastigote form infected in Vero cells; assay type: toxicity, cell-based; details: read-out: Ratio IC50
Trypanosoma cruzi [13] = assay: Antitrypanosomal activity against Trypanosoma cruzi MHOM/Pe/2011/Arequipa(DTU V) blood stream trypomastigote form assessed as parasite growth inhibition incubated for 24 hrs by resazurin dye based assay; assay type: functional, organism-based
Trypanosoma cruzi [14] = assay: Antitrypanosomal activity against Trypanosoma cruzi MHOM/Pe/2011/Arequipa(DTU V) amastigote form infected in Vero cells assessed as parasite growth inhibition incubated for 72 hrs by Giemsa-staining based assay; assay type: functional, organism-based
[15] = Toxicity in BALB/c mouse infected with Trypanosomal Trypanosoma cruzi MHOM/Pe/2011/Arequipa(DTU V) assessed as effect on urea level at 20 mg/kg, po administered for 5 days starting at 9 days post infection and measured after 2 days post treatment; assay type: organism-based; details: in vivo, 120 h, time 5 day
Trypanosoma cruzi [16] = assay: Antitrypanosomal activity against Trypanosoma cruzi MHOM/Pe/2011/Arequipa(DTU V) amastigote form infected in BALB/c mouse assessed as parasite free organ tissue ratio at 20 mg/kg, po administered for 5 days starting at 9 days post infection and measured up to 145 days post infection by PCR analysis relative to control; assay type: functional; details: time 5 day
[17] = Toxicity in BALB/c mouse infected with Trypanosomal Trypanosoma cruzi MHOM/Pe/2011/Arequipa(DTU V) assessed as reduction in weight at 20 mg/kg, po administered for 5 days starting at 9 days post infection and measured up to 145 days post infection; assay type: organism-based; details: in vivo, 120 h, time 5 day
[18] = Selectivity index, ratio of IC50 for cytotoxicity against African green monkey Vero cells to IC50 for antitrypanosomal activity against Trypanosoma cruzi MHOM/Pe/2011/Arequipa(DTU V) epimastigote form; assay type: toxicity, cell-based; details: read-out: Ratio IC50
[19] = Inhibition of Trypanosoma cruzi MHOM/Pe/2011/Arequipa(DTU V) epimastigote form Fe-SOD by UV-VIS spectrophotometric method
Trypanosoma cruzi [20] = assay: Antitrypanosomal activity against Trypanosoma cruzi TINF/CH/1956/Tulahuen (DTU VI) amastigote form infected in Vero cells assessed as parasite growth inhibition incubated for 72 hrs by Giemsa-staining based assay; assay type: functional, organism-based
Trypanosoma cruzi [21] = assay: Antitrypanosomal activity against Trypanosoma cruzi MHOM/Pe/2011/Arequipa(DTU V) epimastigote form assessed as parasite growth inhibition incubated for 48 hrs by resazurin dye based assay; assay type: functional, organism-based
[22] = Toxicity in BALB/c mouse infected with Trypanosomal Trypanosoma cruzi MHOM/Pe/2011/Arequipa(DTU V) assessed as reduction in weight at 20 mg/kg, po administered for 5 days starting at 100 days post infection and measured up to 145 days post infection; assay type: organism-based; details: in vivo, 120 h, time 5 day
Trypanosoma cruzi [23] = assay: Antitrypanosomal activity against Trypanosoma cruzi TINF/CH/1956/Tulahuen (DTU VI) epimastigote form assessed as parasite growth inhibition incubated for 48 hrs by resazurin dye based assay; assay type: functional, organism-based
[24] = Selectivity index, ratio of IC50 for cytotoxicity against African green monkey Vero cells to IC50 for antitrypanosomal activity against Trypanosoma cruzi MHOM/Pe/2011/Arequipa(DTU V) amastigote form infected in Vero cells; assay type: toxicity, cell-based; details: read-out: Ratio IC50
[25] = Selectivity index, ratio of IC50 for cytotoxicity against African green monkey Vero cells to IC50 for antitrypanosomal activity against Trypanosoma cruzi IRHOD/CO/2008/SN3 (DTU I) epimastigote form; assay type: toxicity, cell-based; details: read-out: Ratio IC50
Trypanosoma cruzi [26] = assay: Antitrypanosomal activity against Trypanosoma cruzi TINF/CH/1956/Tulahuen (DTU VI) blood stream trypomastigote form assessed as parasite growth inhibition incubated for 24 hrs by resazurin dye based assay; assay type: functional, organism-based
Trypanosoma cruzi [27] = assay: Antitrypanosomal activity against Trypanosoma cruzi MHOM/Pe/2011/Arequipa(DTU V) epimastigote form assessed as disruption of D-lactate level at IC25 concentration incubated for 72 hrs by NMR spectrometric analysis; assay type: functional, organism-based
[28] = Toxicity in BALB/c mouse infected with Trypanosomal Trypanosoma cruzi MHOM/Pe/2011/Arequipa(DTU V) assessed as effect on LDH level at 20 mg/kg, po administered for 5 days starting at 9 days post infection and measured after 2 days post treatment; assay type: organism-based; details: in vivo, 120 h, time 5 day
Trypanosoma cruzi [29] = assay: Antitrypanosomal activity against Trypanosoma cruzi MHOM/Pe/2011/Arequipa(DTU V) amastigote form infected in BALB/c mouse assessed as reduction in parasite growth at 20 mg/kg, po administered for 5 days starting at 9 days post infection and measured up to 106 days post infection by ELISA assay; assay type: functional, organism-based; details: time 5.0 day

CC(C)c1cc(C=O)c([C@@]2(C)CCCC(C)(C)C2=O)cc1O
Activity (Trypanosoma cruzi [1]): inactive
selectivity ratio [2]: > 40
Activity (Trypanosoma cruzi [3]): Active
Activity [4]: Non-Toxic
selectivity ratio [5]: > 40
inhibition (Trypanosoma cruzi [6]): 36.4%
Activity [7]: Non-Toxic
Activity [8]: Non-Toxic
Activity [9]: Non-Toxic
selectivity ratio [10]: > 15
Activity [11]: Non-Toxic
selectivity ratio [12]: > 40
IC50 (Trypanosoma cruzi [13]): 9.9 µM
IC50 (Trypanosoma cruzi [14]): 9.2 µM
Activity [15]: Non-Toxic
Activity (Trypanosoma cruzi [16]): 28.5%
Activity [17]: Non-Toxic
selectivity ratio [18]: > 15
IC50 [19]: > 100 µM
IC50 (Trypanosoma cruzi [20]): 8.8 µM
IC50 (Trypanosoma cruzi [21]): 18.5 µM
Activity [22]: Non-Toxic
IC50 (Trypanosoma cruzi [23]): 13.5 µM
selectivity ratio [24]: > 40
selectivity ratio [25]: > 15
IC50 (Trypanosoma cruzi [26]): 9.3 µM
Activity (Trypanosoma cruzi [27]): inactive
Activity [28]: Non-Toxic

COC(=O)[C@]1(C)CCC[C@]2(C)C3=C(C=C[C@@H]12)C(=O)C(C(C)C)=CC3=O
Activity (Trypanosoma cruzi [1]): inactive
selectivity ratio [2]: > 40
Activity (Trypanosoma cruzi [3]): Active
Activity [4]: Non-Toxic
selectivity ratio [5]: > 40
inhibition (Trypanosoma cruzi [6]): 50.4%
Activity [7]: Non-Toxic
Activity [8]: Non-Toxic
Activity [9]: Non-Toxic
selectivity ratio [10]: > 15
Activity [11]: Non-Toxic
selectivity ratio [12]: > 40
IC50 (Trypanosoma cruzi [13]): 0.7 µM
IC50 (Trypanosoma cruzi [14]): 4.8 µM
Activity (Trypanosoma cruzi [29]): Active
Activity [15]: Non-Toxic
Activity (Trypanosoma cruzi [16]): 57.1%
Activity [17]: Non-Toxic
selectivity ratio [18]: > 15
IC50 [19]: 6.5 µM
IC50 (Trypanosoma cruzi [20]): 7.1 µM
IC50 (Trypanosoma cruzi [21]): 1.4 µM
Activity [22]: Non-Toxic
IC50 (Trypanosoma cruzi [23]): 2.1 µM
selectivity ratio [24]: > 40
selectivity ratio [25]: > 15
IC50 (Trypanosoma cruzi [26]): 1.6 µM
Activity (Trypanosoma cruzi [27]): inactive
Activity [28]: Non-Toxic
